In ChEMBL document CHEMBL1128925, “Novel inhibitors of cell adhesion molecule expression” (Bioorg Med Chem Lett, 1996):

What was measured:
Mus musculus = species on record: Mus musculus; assay: Compound was evaluated for inhibition of neutrophil recruitment in a mouse skin immune complex model.; format: functional; design: concentration or dose not given beside the values
HUVEC [1] = assay: Compound was evaluated for inhibition of expression of ELAM-1 in IL-1 beta activated human umbilical vein endothelial cells(HUVECs) by using ELISA at 30 uM; format: functional
HUVEC [2] = assay: Compound was evaluated for inhibition of expression of VCAM-1 in IL-1 beta activated human umbilical vein endothelial cells(HUVECs) by using ELISA at 30 uM; format: functional
HUVEC [3] = assay: Compound was evaluated for inhibition of expression of ELAM-1 in IL-1 beta activated human umbilical vein endothelial cells(HUVECs) by using ELISA; format: functional, cell-based
HUVEC [4] = assay: Compound was evaluated for inhibition of expression of VCAM-1 in IL-1 beta activated human umbilical vein endothelial cells(HUVECs) by using ELISA; format: functional, cell-based

SMILES	Inhibition (Mus musculus) [%]	inhibition at 30 µM (HUVEC [1]) [%]	inhibition at 30 µM (HUVEC [2]) [%]	IC50 (HUVEC [3]) [µM]	IC50 (HUVEC [4]) [µM]
Cc1nnc([S+]([O-])Cc2ccccn2)o1 (configuration not stated)	40	60	80	–	–
COc1c(C)cnc(C[S+]([O-])c2nnc(-c3cccc(F)c3)o2)c1C (configuration not stated)	–	–	–	15	12
COc1c(C)cnc(C[S+]([O-])c2nnc(-c3cccc(C(F)(F)F)c3)o2)c1C (configuration not stated)	–	70	85	–	–
COc1ccnc2c1CCCCC2[S+]([O-])c1nnc(C)o1 (configuration not stated)	–	0	0	–	–
CCc1nnc([S+]([O-])Cc2ncc(C)c(OC)c2C)o1 (configuration not stated)	–	–	–	12	10
COc1c(C)cnc(C[S+]([O-])c2nnc(-c3ccccc3O)o2)c1C (configuration not stated)	20	–	–	10	8
COc1c(C)cnc(C[S+]([O-])c2nnc(-c3ccc(C(F)(F)F)cc3)o2)c1C (configuration not stated)	–	50	70	–	–
COc1c(C)cnc(C[S+]([O-])c2nnc(-c3ccccc3)o2)c1C (configuration not stated)	25	–	–	7	6
COc1c(C)cnc(C[S+]([O-])c2nnc(-c3cccs3)o2)c1C (configuration not stated)	–	–	–	5	3
CCCCc1nnc([S+]([O-])Cc2ncc(C)c(OC)c2C)o1 (configuration not stated)	–	60	85	–	–
COc1c(C)cnc(C[S+]([O-])c2nnc(C)o2)c1C (configuration not stated)	55	–	–	10	8
[O-][S+](Cc1ccccc1)c1nnc(-c2cccs2)o1 (configuration not stated)	40	–	–	7	6
COc1c(C)cnc(C[S+]([O-])c2nnc(-c3cccn3C)o2)c1C (configuration not stated)	–	–	–	6	4
CCCCCc1nnc([S+]([O-])Cc2ncc(C)c(OC)c2C)o1 (configuration not stated)	–	45	70	–	–
CCCc1nnc([S+]([O-])Cc2ncc(C)c(OC)c2C)o1 (configuration not stated)	–	–	–	10	8
[O-][S+](Cc1ccccc1)c1nnc(-c2ccncc2)o1 (configuration not stated)	55	–	–	4	3
[O-][S+](Cc1ccccc1)c1nnc(-c2cccnc2)o1 (configuration not stated)	50	–	–	8	6
[O-][S+](Cc1ccccc1)c1nnc(-c2ccccn2)o1 (configuration not stated)	80	–	–	5	4
Cc1nnc([S+]([O-])Cc2ccccc2)o1 (configuration not stated)	–	20	35	–	–
[O-][S+](Cc1ccccc1)c1nnc(-c2ccccc2O)o1 (configuration not stated)	–	–	–	8	6
COc1c(C)cnc(C[S+]([O-])c2nnc(-c3ccc(F)cc3)o2)c1C (configuration not stated)	–	–	–	14	11
Cc1nnc([S+]([O-])c2c(C)cccc2C)o1 (configuration not stated)	–	0	0	–	–
